In paper PMC5614982, “Impact of Gastric H^+/K^+-ATPase rs2733743 on the Intragastric pH-Values of Dexlansoprazole Injection in Chinese Subjects” (Frontiers in Pharmacology, 2017):
Marks after values point to notes of the source that are not given here.

Test system: intragastric pH
Assay: 24-h intragastric pH monitoring after single intravenous dexlansoprazole in healthy Chinese subjects
Format: in vivo, human
Conditions: 30 mg iv
Description: Dexlansoprazole injection (30 mg per vial) used in the PK and PD study was manufactured by Nanjing Yoko Pharma Co., Ltd. (Nanjing, China). Subjects received an intravenous infusion of 20 or 30 mg dexlansoprazole injection in sterile saline solution (100 mL/h, 60 min). The study drug was administrated with an infusing pump (SA213, Lifepum, Beijing, China) and given through an intravenous catheter in the antecubital vein opposite to the one from which blood samples were taken.
An ambulatory pH recorder (Orion II, MMS, USA) with a disposable pH catheter (VersaFlex, MMS, USA) was used to monitor intragastric pH. The electrode was placed in water for at least 10 min and then calibrated using standard buffer solutions (pH 1.07 and 7.01) before intubation. Both calibration and intubation processes were conducted under the guidance of MMS Virtual Instructor Program. The catheter, trans nasally placed 10 cm under the lower esophageal sphincter, was identified by a sharp decrease in pH (Wang et al., [2010], [2011]). Subjects were intubated on baseline and the day of dosing at about 7:30 a.m., and the intragastric pH data were recorded continuously for 24 h from 8:00 a.m. Intragastric pH was sampled every second, and the data were stored in a MMS Database program (MMS, USA). The PD parameters including Median (pH), Mean (pH), TpH≥3 (%), TpH≥4 (%), TpH≥6 (%), TpH≥6, and AUC^pH−t were analyzed by the MMS Database program.
Median (pH) and mean (pH) were well-investigated in most studies, and the percentage time of pH ≥ 4 (or pH ≥ 4 holding time ratio) was the benchmark for predicting clinical efficacy of PPIs in treating acid-related diseases (Metz et al., [2009]). Novel parameter TpH≥6 (time to first gastric pH ≥ 6, min) and AUCτ 1-τ 2pH-t (area under pH-time curve from τ1 to τ2, pH·s) were defined to evaluate the velocity and extent of pharmacodynamics with more accuracy. All parameters were calculated and compared according to time periods of 0–24, 0–4, 4–10, 10–14, and 14–24 h post dosing.
The parameter AUCτ 1-τ 2pH-t was calculated as follows:
Where t represented the time duration measured by seconds, AUCτ 1-τ 210-t was the area between the pH line = 10 and the pH-time curve, which was generated by the MMS software.
Baseline-adjusted PD parameters were calculated as follows: for example, ΔAUC^pH−t = AUC^pH−t − AUC^pH−tbaseline, ΔMean (pH) = Mean (pH) − Mean (pH)^baseline, and ΔMedian (pH) = Median (pH) − Median (pH)^baseline.

[1] = CYP2C19 EMs, H+/K+-ATPase WT (n = 6), 0–4 h
[2] = CYP2C19 EMs, H+/K+-ATPase WT (n = 6), 0–24 h
[3] = CYP2C19 EMs, H+/K+-ATPase WT (n = 6), 14–24 h
[4] = H+/K+-ATPase Het (n = 10), 0–4 h

Cc1c(OCC(F)(F)F)ccnc1C[S@@+]([O-])c1nc2ccccc2[nH]1 [dexlansoprazole]
Mean (pH) [1]: 6.1 ± 0.5 pH | Median (pH) [1]: 6.9 ± 0.5 pH | TpH≥3(%) [1]: 80.8 ± 8.4% | TpH≥4(%) [1]: 76.4 ± 9.4% | TpH≥6(%) [1]: 66.9 ± 14.8% | ΔMean (pH) [1]: 3.4 ± 0.7 pH | ΔMedian (pH) [1]: 4.5 ± 0.7^b pH | ΔTpH≥3(%) [1]: 51.7 ± 34.6% | ΔTpH≥4 (%) [1]: 58.6 ± 15.0% | ΔTpH≥6(%) [1]: 60.9 ± 12.6% | Mean (pH) [2]: 5.6 ± 1.1 pH | Median (pH) [2]: 5.8 ± 1.4 pH | TpH≥3(%) [2]: 79.8 ± 16.2% | TpH≥4(%) [2]: 73.1 ± 20.0% | TpH≥6(%) [2]: 53.5 ± 23.6% | ΔMean (pH) [2]: 2.4 ± 0.8^c pH | ΔMedian (pH) [2]: 3.2 ± 1.0 pH | ΔTpH≥3(%) [2]: 35.3 ± 10.3^c % | ΔTpH≥4 (%) [2]: 41.0 ± 16.6^c % | ΔTpH≥6(%) [2]: 43.2 ± 18.2% | Mean (pH) [3]: 4.8 ± 1.8 pH | Median (pH) [3]: 4.3 ± 1.7 pH | TpH≥3(%) [3]: 62.4 ± 35.6% | TpH≥4(%) [3]: 52.1 ± 41.3% | TpH≥6(%) [3]: 34.4 ± 28.0% | ΔMean (pH) [3]: 1.6 ± 0.9^c pH | ΔMedian (pH) [3]: 2.3 ± 1.7 pH | ΔTpH≥3(%) [3]: 38.5 ± 26.5^c % | ΔTpH≥4 (%) [3]: 29.5 ± 29.9% | ΔTpH≥6(%) [3]: 14.1 ± 12.6^c % | Mean (pH) (CYP2C19 IM (n = 10), 0–4 h): 5.6 ± 2.2 pH | Median (pH) (CYP2C19 IM (n = 10), 0–4 h): 6.2 ± 2.8 pH | TpH≥3(%) (CYP2C19 IM (n = 10), 0–4 h): 66.9 ± 33.4% | TpH≥4(%) (CYP2C19 IM (n = 10), 0–4 h): 63.6 ± 36.2% | TpH≥6(%) (CYP2C19 IM (n = 10), 0–4 h): 56.6 ± 36.6% | ΔMean (pH) (CYP2C19 IM (n = 10), 0–4 h): 3.3 ± 1.7 pH | ΔMedian (pH) (CYP2C19 IM (n = 10), 0–4 h): 4.3 ± 2.5 pH | ΔTpH≥3(%) (CYP2C19 IM (n = 10), 0–4 h): 56.9 ± 27.1% | ΔTpH≥4 (%) (CYP2C19 IM (n = 10), 0–4 h): 56.2 ± 31.5% | ΔTpH≥6(%) (CYP2C19 IM (n = 10), 0–4 h): 51.3 ± 33.5% | Mean (pH) (CYP2C19 IM (n = 10), 0–24 h): 6.6 ± 0.9 pH | Median (pH) (CYP2C19 IM (n = 10), 0–24 h): 7.0 ± 0.8 pH | TpH≥3(%) (CYP2C19 IM (n = 10), 0–24 h): 89.6 ± 9.2% | TpH≥4(%) (CYP2C19 IM (n = 10), 0–24 h): 85.7 ± 10.6% | TpH≥6(%) (CYP2C19 IM (n = 10), 0–24 h): 67.8 ± 13.4% | ΔMean (pH) (CYP2C19 IM (n = 10), 0–24 h): 3.7 ± 0.6 pH | ΔMedian (pH) (CYP2C19 IM (n = 10), 0–24 h): 4.9 ± 0.8 pH | ΔTpH≥3(%) (CYP2C19 IM (n = 10), 0–24 h): 65.3 ± 6.2% | ΔTpH≥4 (%) (CYP2C19 IM (n = 10), 0–24 h): 70.0 ± 8.3% | ΔTpH≥6(%) (CYP2C19 IM (n = 10), 0–24 h): 56.7 ± 6.4% | Mean (pH) (CYP2C19 IM (n = 10), 14–24 h): 6.1 ± 0.9 pH | Median (pH) (CYP2C19 IM (n = 10), 14–24 h): 6.2 ± 1.2 pH | TpH≥3(%) (CYP2C19 IM (n = 10), 14–24 h): 88.9 ± 8.9% | TpH≥4(%) (CYP2C19 IM (n = 10), 14–24 h): 80.9 ± 12.6% | TpH≥6(%) (CYP2C19 IM (n = 10), 14–24 h): 50.7 ± 13.6% | ΔMean (pH) (CYP2C19 IM (n = 10), 14–24 h): 2.7 ± 0.9 pH | ΔMedian (pH) (CYP2C19 IM (n = 10), 14–24 h): 3.7 ± 0.9 pH | ΔTpH≥3(%) (CYP2C19 IM (n = 10), 14–24 h): 60.8 ± 19.5% | ΔTpH≥4 (%) (CYP2C19 IM (n = 10), 14–24 h): 55.6 ± 17.3% | ΔTpH≥6(%) (CYP2C19 IM (n = 10), 14–24 h): 27.8 ± 14.7^c % | Mean (pH) (CYP2C19 PM (n = 7), 0–4 h): 5.2 ± 1.1 pH | Median (pH) (CYP2C19 PM (n = 7), 0–4 h): 5.9 ± 1.8 pH | TpH≥3(%) (CYP2C19 PM (n = 7), 0–4 h): 73.7 ± 10.5% | TpH≥4(%) (CYP2C19 PM (n = 7), 0–4 h): 64.8 ± 15.2% | TpH≥6(%) (CYP2C19 PM (n = 7), 0–4 h): 47.7 ± 24.1% | ΔMean (pH) (CYP2C19 PM (n = 7), 0–4 h): 3.5 ± 0.9 pH | ΔMedian (pH) (CYP2C19 PM (n = 7), 0–4 h): 4.2 ± 1.8 pH | ΔTpH≥3(%) (CYP2C19 PM (n = 7), 0–4 h): 69.8 ± 9.5% | ΔTpH≥4 (%) (CYP2C19 PM (n = 7), 0–4 h): 63.2 ± 13.7% | ΔTpH≥6(%) (CYP2C19 PM (n = 7), 0–4 h): 47.3 ± 23.7% | Mean (pH) (CYP2C19 PM (n = 7), 0–24 h): 6.5 ± 1.1 pH | Median (pH) (CYP2C19 PM (n = 7), 0–24 h): 6.7 ± 1.2 pH | TpH≥3(%) (CYP2C19 PM (n = 7), 0–24 h): 89.0 ± 13.3% | TpH≥4(%) (CYP2C19 PM (n = 7), 0–24 h): 85.0 ± 16.4% | TpH≥6(%) (CYP2C19 PM (n = 7), 0–24 h): 72.2 ± 19.8% | ΔMean (pH) (CYP2C19 PM (n = 7), 0–24 h): 4.1 ± 1.1^a pH | ΔMedian (pH) (CYP2C19 PM (n = 7), 0–24 h): 4.8 ± 1.2 pH | ΔTpH≥3(%) (CYP2C19 PM (n = 7), 0–24 h): 68.6 ± 15.3^a % | ΔTpH≥4 (%) (CYP2C19 PM (n = 7), 0–24 h): 74.6 ± 16.6^a % | ΔTpH≥6(%) (CYP2C19 PM (n = 7), 0–24 h): 68.8 ± 17.9^a % | Mean (pH) (CYP2C19 PM (n = 7), 14–24 h): 6.1 ± 1.4 pH | Median (pH) (CYP2C19 PM (n = 7), 14–24 h): 5.9 ± 2.0 pH | TpH≥3(%) (CYP2C19 PM (n = 7), 14–24 h): 87.3 ± 22.7% | TpH≥4(%) (CYP2C19 PM (n = 7), 14–24 h): 82.9 ± 26.0% | TpH≥6(%) (CYP2C19 PM (n = 7), 14–24 h): 64.4 ± 25.6^a % | ΔMean (pH) (CYP2C19 PM (n = 7), 14–24 h): 3.8 ± 1.3^a pH | ΔMedian (pH) (CYP2C19 PM (n = 7), 14–24 h): 4.1 ± 1.9^a pH | ΔTpH≥3(%) (CYP2C19 PM (n = 7), 14–24 h): 76.9 ± 20.0^a % | ΔTpH≥4 (%) (CYP2C19 PM (n = 7), 14–24 h): 75.9 ± 22.4^a % | ΔTpH≥6(%) (CYP2C19 PM (n = 7), 14–24 h): 59.0 ± 24.6^a^,^b % | Mean (pH) [4]: 5.3 ± 2.0 pH | Median (pH) [4]: 5.5 ± 2.5 pH | TpH≥3(%) [4]: 70.6 ± 25.1% | TpH≥4(%) [4]: 64.8 ± 28.6% | TpH≥6(%) [4]: 50.5 ± 38.4% | ΔMean (pH) [4]: 3.0 ± 1.2 pH
